Consider 22 compounds from paper PMC10468298, “Umami taste perception and preferences of the domestic cat (Felis catus), an obligate carnivore” (Chemical Senses, 2023).

Like-named read-outs stand apart in the source and are kept apart here. Where only a bound is given, the exact number is not on record here.

For data set [1], the system named is cats. The data set is described as follows: Taste choice test, cat water panel, 1-hr exposure. It is filed as in vivo, domestic cat (Felis catus). On the procedure: All taste choice tests with 1-hr exposure period were run as outlined in the Materials and Methods, with the following differences. The minimum panel size was n = 24 and the maximum panel size was n = 25. […] The cats were water-restricted for 1-hr prior to the 1-hr water exposure period, with their first meal given in the last 20-min of the water restriction. 50 mL of each test solution was offered to the cats in round water bowls with a maximum capacity 150 mL (Flyte So Fancy, UK), which were held in bespoke bowl holders (TECHNIK – A Division of Syspal Ltd., UK).

The subject of data set [2] is cats. The data set is described as follows: 2-bottle taste choice test, cat water panel, 18-h exposure. Format: in vivo, domestic cat (Felis catus). On the procedure:
The minimum panel size was n = 14, but only for one study with 80 mM MSG; in all other cases, the minimum panel size was n = 21. The maximum panel size was n = 24. […] For those cases, we have also reported the number of unique cats, as some cats were present in more than one study. All cats on the panel had previously been habituated and screened for suitability to perform this type of study. […] The cats were re-homed once they completed their tenure at the Waltham Petcare Science Institute, as per standard Waltham practice.
Solutions were made with deionized water (Purite, UK). […] In some cases, salts were purchased instead of the pure compound due to solubility, stability, or availability. For all the solutions, the pH range spanned approximately 5–8.
Choice tests for the taste compound solutions at specific concentrations were run over an 18-h period using a 2-bottle testing apparatus. […] All animal studies conformed with the Mars Animal Research Policy (www.Mars.com) and were approved by the Waltham Animal Welfare and Ethical Review Body.
Using a bespoke statistical analysis toolkit, based on R software (R Foundation, Vienna, Austria), a mixed model analysis was performed on the difference in intake (g) between water solutions, including cat (random) as a factor where appropriate. This was used to test the mean intake difference versus 0, i.e. no difference, at a 5% significance level. The mean difference in intake was reported with a 95% confidence interval. Any data errors (e.g. following manual error such as solution spillage, overflow) were removed from the final data set for analysis.

Data set [3] concerns the target T1, cat Tas1r1-Tas1r3 (Felis catus, UniProt A0ABI7Z2I4). Nature of the data set: Calcium mobilization assay (FLIPR) in HEK293T cells expressing cat Tas1r1-Tas1r3 and mGα15i1. The note with it: for Activity as agonist or enhancer of the cat umami receptor: alone and with 0.2 mM IMP. (In general: Calcium flux is commonly read through the fluorescence of an indicator in the cells.)
Experimental: Cat Tas1r1 and cat Tas1r3 were also stably transfected, but the GeneSwitch system (Invitrogen) was used, resulting in expression which had to be induced by adding 0.1 nM mifepristone to the cells 48 h prior to the experiment. […] Expression constructs were transfected into the HEK293T cell line using Lipofectamine 2000 according to the manufacturer’s recommendations. […] The cell line was maintained in Dulbecco’s MEM High-Glucose supplemented with Glutamax-I (Gibco) and with 10% dialyzed fetal bovine serum, 1% Penicillin/Streptomycin, 100 µg/mL G418, 100 µg/mL Hygromycin, 10 µg/mL Zeocin, 2.5 µg/mL Blasticidin, and 0.5 µg/mL Puromycin.
(§1) These and other test compounds were stored at −20 °C and freshly prepared in the assay buffer on the day of the experiments. […] For the functional expression work, the solubility of amino acids was improved by sonication.
The calcium mobilization experiments were performed using a FLIPR Tetra (Molecular Devices). […] Twenty-four hours later, 0.1 nM mifepristone was added to each well to induce expression of cat Tas1r1 and cat Tas1r3. […] Forty-eight hours after induction with mifepristone, the medium was removed from the cells and 20 μL loading buffer (Tyrode’s buffer + 2 μM Fluo4 AM + 100 μM probenecid) was added, and the plate was incubated for 40 min at 37 °C and then transferred for another 20 min at room temperature. The cells were then washed two times with Tyrode’s buffer using an automated plate washer (Biotek) and incubated for 20 min at room temperature in the dark. The cells were then washed a further two times before being transferred to the FLIPR Tetra.
Concentration–response curves, each with 8 concentration points, were established by plotting signal amplitudes versus agonist concentration. The half maximal effective concentrations (EC50) were identified by nonlinear regression using a variable slope model with the equation Y = Bottom + (X^Hillslope) × (Top-Bottom)/(X^HillSlope + EC50^HillSlope), where Y is the response, and X is the agonist concentration, Top and Bottom are the plateaus in the same units as Y and HillSlope is the Slope factor or Hill slope. All calculations and plots were done using GraphPad Prism 8 (GraphPad Software, CA). […] In these cases, the EC50 was noted as being higher than the maximum concentration used in the assay.

Data set [4] deals with T1, cat Tas1r1-Tas1r3. More on the design: method as in Toda et al. 2021. The note with it: ref Toda et al. 2021, cited from earlier work; for Activation of cat Tas1r1-Tas1r3: tested alone.
Data set [5] deals with cats. On the set-up: method as in Beauchamp et al. 1977. Conditions: 10, 20, 40 and 80 mM versus water, 1-h; ref Beauchamp et al. 1977; cited from earlier work.
Another data set deals with cat Tas1r1 VFT. On the set-up: method as in Belloir et al. 2017. Conditions: intrinsic tryptophan fluorescence; ref Belloir et al. 2017; cited from earlier work.
Data set [6] relates to cats. Conditions: cited from earlier work; for Behavioral response of cats to the solutions: acidic solutions, ref Beauchamp et al. 1977, McGrane et al. 2013.
For data set [7], the system named is cats. On the set-up: method as in White and Boudreau 1975. Conditions: 0.5, 5.0 and 50.0 mM in 50 mM saline versus 50 mM saline, 24-h; ref White and Boudreau 1975; cited from earlier work.
A short description of data set [8]: Solubility of amino acids in assay buffer / water. Conditions: Tyrode's buffer pH 7.4, sonication.
Experimental: as §1
Where [9] appears, read: amino acid 25 mM versus L-Serine 25 mM.
[10] abbreviates: amino acid 25 mM versus L-Tryptophan 25 mM.
Where [11] appears, read: amino acid 25 mM versus L-Asparagine 25 mM.

T1 sequence (A0ABI7Z2I4 entry or part of it): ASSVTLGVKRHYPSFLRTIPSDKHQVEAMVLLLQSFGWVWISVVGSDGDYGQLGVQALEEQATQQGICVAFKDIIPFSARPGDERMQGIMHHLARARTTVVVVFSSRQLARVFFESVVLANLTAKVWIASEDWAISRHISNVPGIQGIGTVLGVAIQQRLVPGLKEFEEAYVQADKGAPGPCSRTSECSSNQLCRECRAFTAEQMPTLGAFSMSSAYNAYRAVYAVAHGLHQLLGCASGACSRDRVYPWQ
T1 sequence (Q49KI5 25-865, further chain): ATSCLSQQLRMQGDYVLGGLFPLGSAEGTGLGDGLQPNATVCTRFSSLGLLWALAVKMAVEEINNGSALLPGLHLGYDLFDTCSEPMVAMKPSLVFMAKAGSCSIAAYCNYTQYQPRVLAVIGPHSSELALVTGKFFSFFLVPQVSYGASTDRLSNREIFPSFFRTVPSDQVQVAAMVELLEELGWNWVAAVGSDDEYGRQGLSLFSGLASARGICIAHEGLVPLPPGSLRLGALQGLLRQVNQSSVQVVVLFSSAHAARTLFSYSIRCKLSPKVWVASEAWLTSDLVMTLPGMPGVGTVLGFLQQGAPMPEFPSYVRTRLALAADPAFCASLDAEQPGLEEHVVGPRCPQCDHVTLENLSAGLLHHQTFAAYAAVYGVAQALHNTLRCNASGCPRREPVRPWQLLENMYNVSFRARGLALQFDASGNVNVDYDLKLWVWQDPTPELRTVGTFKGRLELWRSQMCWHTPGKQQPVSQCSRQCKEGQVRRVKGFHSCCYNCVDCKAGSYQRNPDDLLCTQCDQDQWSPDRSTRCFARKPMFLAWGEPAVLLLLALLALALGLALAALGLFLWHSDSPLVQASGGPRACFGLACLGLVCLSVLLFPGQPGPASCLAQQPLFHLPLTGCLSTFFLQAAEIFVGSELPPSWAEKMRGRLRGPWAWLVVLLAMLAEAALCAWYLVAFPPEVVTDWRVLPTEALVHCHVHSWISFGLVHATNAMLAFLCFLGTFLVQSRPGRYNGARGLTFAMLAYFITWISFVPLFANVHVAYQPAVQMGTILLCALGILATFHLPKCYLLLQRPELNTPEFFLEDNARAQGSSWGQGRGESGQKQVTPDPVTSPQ

In the case of `Nc1ncnc2c1ncn2[C@@H]1O[C@H](COP(=O)(O)O)[C@@H](O)[C@H]1O` [AMP, Adenosine 5ʹ-monophosphate], the figures for the Intake diff. in the data set on cats [1] (nucleotide 5 mM versus water) and in the data set on cats [2] (nucleotide 5 mM versus water) were 20.6 g and 25.4 g, respectively.
`Nc1ccn([C@@H]2O[C@H](COP(=O)(O)O)[C@@H](O)[C@H]2O)c(=O)n1` [CMP, Cytidine 5ʹ-monophosphate] yielded an Intake diff. with cats [2] (nucleotide 5 mM versus water) of 69.5 g.
In general, EC50 refers to the concentration at which the effect is half-maximal. For `Nc1nc2c(ncn2[C@@H]2O[C@H](COP(=O)(O)O)[C@@H](O)[C@H]2O)c(=O)[nH]1` [GMP, Guanosine 5ʹ-monophosphate], the EC50 at cat Tas1r1-Tas1r3 [3] was 0.32 mM. In addition, the “Concentration at which the assay started to respond” value was “around 0.1 mM” on cat Tas1r1-Tas1r3 [3] (nucleotide alone) and “around 0.01 mM” at cat Tas1r1-Tas1r3 [4] (rat Gα15 chimera). Besides, the “Activation of cat Tas1r1-Tas1r3” value at cat Tas1r1-Tas1r3 [4] is on record as “strongly activated”. The Intake diff. in the data set on cats [2] (nucleotide 5 mM versus water) came to 78.8 g.
`NCC(=O)O` [Glycine]: the “Behavioral response of cats” value with cats [5] is “indifferent”. Moreover, the Intake diff. in the data set on cats [1] (amino acid 25 mM versus water) stood at 9.1 g; in the data set on cats [2] (amino acid 25 mM versus water), 20.8 g.
Consider `C[C@H](N)C(=O)O` [L-Alanine, reference compound], for which the “Behavioral response of cats” value with cats [5] is given as “may be preferred to water”. Besides, the Intake diff. amounted to 16.9 g in the data set on cats [1] (amino acid 25 mM versus water) and 30.5 g in the data set on cats [2] (amino acid 25 mM versus water). Also, on cat Tas1r1-Tas1r3 [3], the EC50 amounted to 15.5 mM. Further, in the data set with cat Tas1r1 VFT, the “Ligand binding to cat Tas1r1 VFT (conformational change)” value is listed as “active”.
Turning to `N=C(N)NCCC[C@H](N)C(=O)O` [L-Arginine], the “Ligand binding to cat Tas1r1 VFT (conformational change)” value in the data set on cat Tas1r1 VFT is “active”.
On to `NC(=O)C[C@H](N)C(=O)O` [L-Asparagine], for which the concentration giving a half-maximal response (EC50) on cat Tas1r1-Tas1r3 [3] (read-out: wIMP EC50, L-amino acid with 0.2 mM IMP) was found to be 15.7 mM. Moreover, the results for the Intake diff. with cats [2] (setting [9]), in the data set on cats [2] (setting [10]) and in the data set with cats [2] (amino acid 25 mM versus water) were 12.0 g, -20.9 g and 35.9 g, respectively.
Regarding `N[C@@H](CC(=O)O)C(=O)O` [L-Aspartic acid], at cat Tas1r1-Tas1r3 [3], the “Activity as agonist or enhancer of the cat umami receptor” value (shortened to “Activity as agonist or enhancer”) is “did not respond”. For the same compound, the “Behavioral response of cats to the solutions” value with cats [6] is listed as “avoided”.
With `N[C@@H](CS)C(=O)O` [L-Cysteine], the Intake diff. in the data set on cats [1] (amino acid 25 mM versus water) amounted to 27.9 g; with cats [2] (amino acid 25 mM versus water) it was 48.3 g. Besides, at cat Tas1r1-Tas1r3 [3], the EC50 came out at 13.1 mM. Also, the “Ligand binding to cat Tas1r1 VFT (conformational change)” value in the data set on cat Tas1r1 VFT is “inactive”.
`N[C@@H](CCC(=O)O)C(=O)O` [L-Glutamic acid]: in the data set with cats [5], the “Behavioral response of cats” value is on record as “avoided”. Further, at cat Tas1r1-Tas1r3 [3], the “Activity as agonist or enhancer” value is recorded as “did not respond”. The “Activation of cat Tas1r1-Tas1r3” value on cat Tas1r1-Tas1r3 [4] was “inactive alone”. For the same compound, in the data set on cats [6], the “Behavioral response of cats to the solutions” value is recorded as “avoided”.
With `N[C@@H](Cc1c[nH]cn1)C(=O)O` [L-Histidine], in the data set on cats [7], the “Behavioral response of cats” value is “preferred”. The half-maximal effective concentration (EC50) on cat Tas1r1-Tas1r3 [3] is 9.71 mM. Further, the Intake diff. in the data set with cats [2] (setting [11]) was 77.0 g; in the data set on cats [2] (setting [9]), 91.5 g; in the data set on cats [2] (setting [10]), 97.0 g; in the data set with cats [2] (amino acid 25 mM versus water), 43.7 g. In addition, the “Ligand binding to cat Tas1r1 VFT (conformational change)” value in the data set with cat Tas1r1 VFT is “active”. In the data set on cats [6] (100 mM, ref McGrane et al. 2013), the “Behavioral preference of cats” value is “significant behavioral preference”.
Turning to `CC[C@H](C)[C@H](N)C(=O)O` [L-Isoleucine], the “Ligand binding to cat Tas1r1 VFT (conformational change)” value with cat Tas1r1 VFT is recorded as “active”.
Regarding `CC(C)C[C@H](N)C(=O)O` [L-Leucine], the Intake diff. with cats [1] (amino acid 25 mM versus water) was determined as 22.5 g; in the data set with cats [2] (amino acid 25 mM versus water), 36.6 g. The EC50 on cat Tas1r1-Tas1r3 [3] came to 31.7 mM.
For `CSCC[C@H](N)C(=O)O` [L-Methionine], the EC50 on cat Tas1r1-Tas1r3 [3] is above 30 mM. Also, the Intake diff. with cats [2] (amino acid 25 mM versus water) is 35.8 g.
For the compound `N[C@@H](Cc1ccccc1)C(=O)O` [L-Phenylalanine], the Intake diff. in the data set on cats [1] (amino acid 25 mM versus water) was determined as 19.4 g; with cats [2] (amino acid 25 mM versus water), 34.5 g.
`N[C@@H](CO)C(=O)O` [L-Serine]: the Intake diff. is reported as 18.0 g in the data set with cats [1] (amino acid 25 mM versus water) and 25.3 g in the data set on cats [2] (amino acid 25 mM versus water). Besides, the EC50 on cat Tas1r1-Tas1r3 [3] was 14.1 mM.
As to `N[C@@H](Cc1c[nH]c2ccccc12)C(=O)O` [L-Tryptophan], the “Solubility in assay buffer” value in data set [8] is on record as “insoluble at 60 mM”. In addition, the Intake diff. in the data set with cats [1] (amino acid 25 mM versus water) is on record as 10.0 g; in the data set on cats [2] (setting [11]), 20.9 g; in the data set on cats [2] (setting [9]), -11.6 g; with cats [2] (amino acid 25 mM versus water) it was 8.4 g. Moreover, the “Behavioral response of cats” value in the data set on cats [7] is recorded as “avoided”. On cat Tas1r1-Tas1r3 [3], the concentration giving a half-maximal response (EC50) was determined as 6.32 mM.
In the case of `N[C@@H](Cc1ccc(O)cc1)C(=O)O` [L-Tyrosine], at cat Tas1r1-Tas1r3 [3], the concentration giving a half-maximal response (EC50) was 22.2 mM. In the data set with cats [2] (amino acid 2.5 mM versus water), this compound displayed an Intake diff. of -1.8 g.
Turning to `N[C@@H](CCC(=O)O)C(=O)[O-].[Na+]` [MSG, monosodium glutamate], the Intake diff. in the data set with cats [2] (MSG 20 mM versus water) is on record as 22.2 g; in the data set on cats [2] (MSG 80 mM versus water), -7.9 g.
As to `NCCS(=O)(=O)O` [Taurine], the “Activity as agonist or enhancer” value on cat Tas1r1-Tas1r3 [3] is “inactive”.
In the data set with cats [2] (nucleotide 5 mM versus water), `O=c1ccn([C@@H]2O[C@H](COP(=O)(O)O)[C@@H](O)[C@H]2O)c(=O)[nH]1` [UMP, Uridine 5ʹ-monophosphate] yielded an Intake diff. of 67.0 g.
`O=c1[nH]c(=O)c2ncn([C@@H]3O[C@H](COP(=O)(O)O)[C@@H](O)[C@H]3O)c2[nH]1` [XMP, Xanthosine 5ʹ-monophosphate]: the EC50 at cat Tas1r1-Tas1r3 [3] was 0.48 mM.
